Results from the NIST ThermoML archive (doi:10.1016/j.tca.2010.07.023).
± gives the expanded uncertainty stated by the source.

What was measured:
[1] = DTA
[2] = Molar enthalpy of transition or fusion; conditions: DSC

Row | Triple point temperature ([1]; Crystal 1) | Triple point temperature ([1]; Crystal 2) | Triple point temperature ([1]; Crystal 3) | Molar enthalpy of transition or fusion ([2]; Crystal 1) | Molar enthalpy of transition or fusion ([2]; Crystal 2) | Molar enthalpy of transition or fusion ([2]; Crystal 3) | Structure (SMILES)
1 | 448 ± 1.5 K | 364 ± 5 K | 206.1 ± 1.4 K | 1.41 ± 0.0717 kcal/mol | 0.0406 ± 0.0239 kcal/mol | 0.311 ± 0.0717 kcal/mol | CC12CCC(CC1=O)C2(C)C (configuration not stated) [1,7,7-trimethylbicyclo[2.2.1]-2-heptanone]
2 | 451.8 ± 1.4 K | 370 ± 4 K | 242.7 ± 1.4 K | 1.51 ± 0.12 kcal/mol | 0.0382 ± 0.0239 kcal/mol | 2.68 ± 0.12 kcal/mol | CC1(C)[C@@H]2CC[C@@]1(C)C(=O)C2 [d-camphor]
